Data taken from publication PMC12683522 (Frontiers in Pharmacology, 2025).

Legend:
[1] = Single-dose pharmacokinetics of palbociclib tablets under fasting conditions with rabeprazole pre-treatment; type: in vivo, healthy Chinese subjects; settings: sampling to 96 h after administration
Description: This was a single-center, randomized, open-label, single-dose, two-period crossover bioequivalence study conducted under fasting conditions with rabeprazole pre-treatment. It was carried out at the Phase I Clinical Research Center of Hebei General Hospital in Shijiazhuang, Hebei Province, China, from 12 September 2023, to 27 October 2023. […] Water intake was prohibited from 1 h before to 1 h after each dose (except for breakfast and water used for medication administration). On Day 1, under fasted conditions (at least 10 h), subjects received their seventh dose of rabeprazole and maintained fasting for an additional 4 h. […]
Tmax, t1/2z, elimination rate constant (λz) and percentage of extrapolated residual area (AUC_%Extrap) were the secondary endpoints. […] Cmax and Tmax were determined directly from the observed plasma concentration-time profiles. AUC0-t was calculated using the linear/log trapezoidal method. AUC0‐∞ was determined by formula: AUC0‐∞ = AUC0-t + Ct/λz, where Ct was the last measurable concentration. The slope of the terminal segment of the semi-logarithmic drug-time curve calculated by linear regression is used to obtain λz. t1/2z was calculated as ln2/λz. AUC_%Extrap was determined by formula: AUC_%Extrap = [( AUC0‐∞ - AUC0-t)/ AUC0‐∞ ]×100%. For pharmacokinetic parameters that cannot be calculated due to inapplicable data, they are marked with “-” in the dataset.

[2] = Safety assessment (adverse events, CTCAE v5.0); type: in vivo, healthy Chinese subjects
Description: Safety assessments included AEs, SAEs, concomitant medications, laboratory tests, clinical symptoms, vital sign measurements, 12-lead ECG and physical examination results. […] Laboratory tests, physical examinations, and 12-lead ECG were performed at screening and during the follow-up period. All AEs were monitored throughout the study by the research doctors and spontaneously reported by the subjects. AEs were coded using MedDRA (Medical Dictionary for Regulatory Activities: Version 26.1) and summarized according to System Organ Class (SOC) and Preferred Term (PT), including the number and percentage of subjects experiencing AEs and the frequency of AEs. The severity of AEs was graded according to the Common Terminology Criteria for Adverse Events (CTCAE, Version 5.0) issued by the U.S. National Cancer Institute. Missing safety data were labeled as “Missing” in the datasets and were not imputed in the subsequent analyses.

[3] = Bioequivalence analysis of test vs reference palbociclib tablets (GLSM ratio, 90% CI); type: in vivo, healthy Chinese subjects; settings: fasting, rabeprazole pre-treatment
Description: After log-transforming Cmax, AUC0−t, and AUC0‐∞ , analysis of variance (using the PROC MIXED method) was performed via a mixed linear effects model, with formulation, period, and sequence treated as fixed effects and subject nested within sequence as a random effect. Throughout the analyses, missing data were, in principle, not imputed. Bioequivalence was assessed using the two one-sided t-tests, and the 90% confidence interval (CI) for the ratio of the geometric least squares means of the two formulations was calculated. If the CI fell entirely within the range of 80.00%–125.00%, the formulations were deemed bioequivalent. Tmax was evaluated using the non-parametric Wilcoxon signed-rank test, and statistical significance was considered when P < 0.05. Pharmacokinetic parameters were calculated using Phoenix WinNonlin (version 8.3), while the remaining statistical analyses and data processing were performed by SAS software (version 9.4). Continuous variables were presented with descriptive statistics, and categorical data were expressed as frequencies and percentages.

[4] = design: method as in Eser et al., 2022; settings: intragastric pH above 4.5; ref Eser et al., 2022; cited from earlier work

share of AUC0‐∞ covered by AUC0-t [1]: 93%
Intra-subject CV of AUC0-t [3]: 6.14%
Intra-subject CV of AUC0‐∞ [3]: 5.83%
Intra-subject CV of Cmax [3]: 9.65%
Compound: CC(=O)c1c(C)c2cnc(Nc3ccc(N4CCNCC4)cn3)nc2n(C2CCCC2)c1=O [palbociclib]
severity of AEs ([2]; CTCAE v5.0): mild and reported as grade 1
adverse events confirmed as adverse reactions ([2]; of 28 adverse events in 17 subjects): 4
Sum of treatment-emergent AEs, AE count ([2]; safety analysis set): 28
incidence of AEs ([2]; safety analysis set): 51.5%
serious adverse events (SAEs) ([2]; safety analysis set): No SAEs occurred
solubility [4]: < 500 µg/mL
